Experimental data from ChEMBL document CHEMBL1152129, “Quantitative structure-activity relationship and complex network approach to monoamine oxidase A and B inhibitors” (J Med Chem, 2008).

Key:
[1] = target: T1, Amine oxidase [flavin-containing] A (Homo sapiens, UniProt P21397); test: Inhibition of human recombinant MAOA by fluorimetric method
T1 sequence (P21397 whole entry): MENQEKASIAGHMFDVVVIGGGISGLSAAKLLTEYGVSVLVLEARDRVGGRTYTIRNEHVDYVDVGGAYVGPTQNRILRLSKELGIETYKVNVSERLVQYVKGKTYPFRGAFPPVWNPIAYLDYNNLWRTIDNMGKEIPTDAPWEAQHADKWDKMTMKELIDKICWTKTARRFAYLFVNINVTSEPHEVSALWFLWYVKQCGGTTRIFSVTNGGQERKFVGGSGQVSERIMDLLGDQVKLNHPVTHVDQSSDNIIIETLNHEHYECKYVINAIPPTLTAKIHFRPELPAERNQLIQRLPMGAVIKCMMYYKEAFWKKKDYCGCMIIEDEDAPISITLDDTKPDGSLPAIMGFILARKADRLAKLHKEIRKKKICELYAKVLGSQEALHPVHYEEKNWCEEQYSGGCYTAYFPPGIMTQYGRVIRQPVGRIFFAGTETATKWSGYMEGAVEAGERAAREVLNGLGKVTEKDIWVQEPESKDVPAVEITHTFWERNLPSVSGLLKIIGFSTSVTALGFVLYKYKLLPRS

[2] = target: T2, Amine oxidase [flavin-containing] B (Homo sapiens, UniProt P27338)
T2 sequence (P27338 whole entry): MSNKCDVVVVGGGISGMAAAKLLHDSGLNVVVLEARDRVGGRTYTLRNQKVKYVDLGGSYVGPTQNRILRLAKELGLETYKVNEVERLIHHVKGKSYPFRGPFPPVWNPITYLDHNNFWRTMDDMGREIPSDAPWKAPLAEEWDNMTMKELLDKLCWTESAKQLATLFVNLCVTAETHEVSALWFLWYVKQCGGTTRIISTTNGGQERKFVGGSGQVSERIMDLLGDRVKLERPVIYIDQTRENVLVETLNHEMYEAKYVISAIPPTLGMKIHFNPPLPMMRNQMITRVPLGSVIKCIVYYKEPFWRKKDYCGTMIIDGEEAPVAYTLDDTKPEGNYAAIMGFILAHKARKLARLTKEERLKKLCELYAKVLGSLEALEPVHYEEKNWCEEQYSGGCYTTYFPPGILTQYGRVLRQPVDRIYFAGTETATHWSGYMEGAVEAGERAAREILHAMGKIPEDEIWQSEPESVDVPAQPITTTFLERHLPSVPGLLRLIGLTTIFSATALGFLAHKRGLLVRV
Description: Inhibition of human recombinant MAOB by fluorimetric method

Homo sapiens = species: Homo sapiens; test: Selectivity ratio of IC50 for human recombinant MAOA to IC50 for human recombinant MAOB
[3] = target: T1, Amine oxidase [flavin-containing] A; test: Inhibition of human liver MAOA
[4] = target: T2, Amine oxidase [flavin-containing] B; test: Inhibition of human recombinant MAOB at 1 mM by fluorimetric method; details: 1000 µM
[5] = target: T1, Amine oxidase [flavin-containing] A; test: Inhibition of human recombinant MAOA at 100 uM by fluorimetric method
[6] = target: T2, Amine oxidase [flavin-containing] B; test: Inhibition of human liver MAOB
[7] = target: T2, Amine oxidase [flavin-containing] B; test: Inhibition of human recombinant MAOB at 100 uM by fluorimetric method
[8] = target: T2, Amine oxidase [flavin-containing] B; test: Inhibition of human recombinant MAOB at 50 uM by fluorimetric method

SMILES: COc1c2ccc(=O)oc2cc2occ(C)c12
- IC50 [1]: 255 µM
- IC50 [2]: 260 µM
- Ratio IC50 (Homo sapiens): 0.98

SMILES: C=C(Br)COc1ccc2c3c(c(=O)oc2c1C)CCCC3
- IC50 [1]: 0.695 µM
- IC50 [2]: 0.236 µM
- Ratio IC50 (Homo sapiens): 2.94

SMILES: CN(C)/N=N/c1[nH]cnc1C(N)=O [DACARBAZINE]
- Activity [3]: Not Active
- Activity [4]: Not Active

SMILES: Cc1cc(=O)oc2c(C)c3oc4c(c3cc12)CCC4
- IC50 [1]: 32.8 µM
- IC50 [2]: 73.2 µM
- Ratio IC50 (Homo sapiens): 0.45

SMILES: C[C@H]1O[C@@H](O[C@H]2[C@@H](O)C[C@H](O[C@H]3[C@@H](O)C[C@H](O[C@H]4CC[C@@]5(C)[C@H](CC[C@@H]6[C@@H]5C[C@@H](O)[C@]5(C)[C@@H](C7=CC(=O)OC7)CC[C@]65O)C4)O[C@@H]3C)O[C@@H]2C)C[C@H](O)[C@@H]1O [DIGOXIN]
- Activity [5]: Not Active
- Activity [3]: Not Active
- Activity [6]: Not Active

SMILES: Cc1c(O)ccc2c3c(c(=O)oc12)CCC3
- Activity [7]: Not Active
- Activity [5]: Not Active

SMILES: C[C@H]1O[C@@H](O[C@H]2[C@@H](O)C[C@H](O[C@H]3[C@@H](O)C[C@H](O[C@H]4CC[C@@]5(C)[C@H](CC[C@@H]6[C@@H]5CC[C@]5(C)[C@@H](C7=CC(=O)OC7)CC[C@]65O)C4)O[C@@H]3C)O[C@@H]2C)C[C@H](O)[C@@H]1O [DIGITOXIN]
- Activity [5]: Not Active
- Activity [3]: Not Active
- Activity [6]: Not Active

SMILES: COc1c2occc2cc2cc(N)c(=O)oc12
- IC50 [1]: 12.2 µM
- IC50 [2]: 16.5 µM
- Ratio IC50 (Homo sapiens): 0.74

SMILES: COc1c(OC2CCCCC2=O)ccc2c(C)cc(=O)oc12 (stereo not drawn)
- Activity [8]: Not Active
- IC50 [1]: 15.4 µM
- Ratio IC50 (Homo sapiens): < 0.31

SMILES: Cc1cc(=O)oc2c(C)c3oc4c(c3cc12)CCCC4
- Activity [7]: Not Active
- Activity [5]: Not Active

SMILES: COc1cc(OC2CCCCC2=O)cc2oc(=O)ccc12 (stereo not drawn)
- Activity [8]: Not Active
- IC50 [1]: 20.4 µM
- Ratio IC50 (Homo sapiens): < 0.41

SMILES: COc1c(OCC(C)=O)ccc2c1oc(=O)c1ccccc12
- IC50 [1]: 11.9 µM
- IC50 [2]: 9.36 µM
- Ratio IC50 (Homo sapiens): 1.27

SMILES: Cc1cc(=O)oc2c(C)c(OC3CCCCC3=O)ccc12 (stereo not drawn)
- IC50 [1]: 0.4 µM
- IC50 [2]: 3.87 µM
- Ratio IC50 (Homo sapiens): 0.1

SMILES: COc1cc(OCC(C)=O)cc2oc(=O)ccc12
- Activity [5]: Not Active
- IC50 [2]: 44.1 µM
- Ratio IC50 (Homo sapiens): > 2.27

SMILES: CC(=O)COc1ccc2c3c(c(=O)oc2c1C)CCC3
- IC50 [1]: 0.235 µM
- IC50 [2]: 0.165 µM
- Ratio IC50 (Homo sapiens): 1.42

SMILES: COc1c(O)ccc2c3c(c(=O)oc12)CCCC3
- Activity [5]: Not Active
- IC50 [2]: 50.2 µM
- Ratio IC50 (Homo sapiens): > 1.99

SMILES: CC(=O)COc1ccc2c(oc(=O)c3ccccc32)c1C
- IC50 [1]: 2.56 µM
- IC50 [2]: 28.1 µM
- Ratio IC50 (Homo sapiens): 0.091

SMILES: Cc1cc(=O)oc2c(C)c(O)ccc12
- Activity [5]: Not Active
- IC50 [2]: 71.3 µM

SMILES: Cc1cc(=O)oc2c(C)c(OC3CCCC3=O)ccc12 (stereo not drawn)
- IC50 [1]: 0.00716 µM
- IC50 [2]: 10.6 µM
- Ratio IC50 (Homo sapiens): 0.00067

SMILES: C=C(Br)COc1ccc2c3c(c(=O)oc2c1C)CCC3
- IC50 [1]: 0.13 µM
- IC50 [2]: 0.00118 µM
- Ratio IC50 (Homo sapiens): 110

SMILES: Cc1cc(=O)oc2cc(O)ccc12 [HYMECROMONE]
- Activity [5]: Not Active
- IC50 [2]: 80.4 µM

SMILES: CN1C[C@H](C(=O)N[C@]2(C)O[C@@]3(O)[C@@H]4CCCN4C(=O)[C@H](Cc4ccccc4)N3C2=O)C=C2c3cccc4[nH]cc(c34)C[C@H]21 [ERGOTAMINE]
- Activity [4]: Not Active

SMILES: CC(C)(S)[C@@H](N)C(=O)O [PENICILLAMINE]
- Activity [5]: Not Active
- Activity [3]: Not Active
- Activity [6]: Not Active

SMILES: COc1cc(O)cc2oc(=O)ccc12
- Activity [7]: Not Active
- Activity [5]: Not Active

SMILES: COc1c(OCC(C)=O)ccc2c3c(c(=O)oc12)CCCC3
- IC50 [1]: 0.396 µM
- IC50 [2]: 12.1 µM
- Ratio IC50 (Homo sapiens): 0.033

SMILES: COc1c(O)ccc2cc(N)c(=O)oc12
- Activity [7]: Not Active
- Activity [5]: Not Active

SMILES: C[C@@H]1O[C@@H](O[C@H]2C[C@](O)(C(=O)CO)Cc3c(O)c4c(c(O)c32)C(=O)c2ccccc2C4=O)C[C@H](N)[C@@H]1O [MEDORUBICIN]
- Activity [4]: Not Active

SMILES: NS(=O)(=O)c1cc(Cl)c(Cl)c(S(N)(=O)=O)c1 [DICHLORPHENAMIDE]
- Activity [4]: Not Active

SMILES: O=C(NCCN1CCOCC1)c1ccc(Cl)cc1 [MOCLOBEMIDE]
- Activity [4]: Not Active

SMILES: Cc1cc(=O)oc2cc(OC3CCCC3=O)ccc12 (stereo not drawn)
- IC50 [1]: 0.0405 µM
- IC50 [2]: 5.57 µM
- Ratio IC50 (Homo sapiens): 0.0073

SMILES: COc1c(OCC(C)=O)ccc2c3c(c(=O)oc12)CCC3
- IC50 [1]: 0.121 µM
- IC50 [2]: 13 µM
- Ratio IC50 (Homo sapiens): 0.0093
